From patent US7304058B2, “Carbamic acid esters of benzothiazoles” (Hoffmann-La Roche Inc., priority 2003, dated 2007)

What was measured:
[1] = target: T1, human adenosine A2A receptor (Homo sapiens, UniProt P29274); assay: [3H]-SCH-58261 binding assay, human adenosine A2A receptor; conditions: [3H]-SCH-58261 1 nM; membranes of CHO cells expressing the recombinant receptor; Ki by Cheng-Prussoff; read-out: hA2 (pKi) (converted)
T1 construct: expressed in transfected cells; host or cells: CHO cells, Semliki Forest virus expression system; membrane preparation
Protocol: Human Adenosine A2A Receptor
The human adenosine A2A receptor was recombinantly expressed in Chinese hamster ovary (CHO) cells using the semliki forest virus expression system. Cells were harvested, washed twice by centrifugation, homogenized and again washed by centrifugation. The final washed membrane pellet was suspended in a Tris (50 mM) buffer containing 120 mM NaCl, 5 mM KCl, 2 mM CaCl2 and 10 mM MgCl2 (pH 7.4) (buffer A). The [^3H]-SCH-58261 (Dionisotti et al., 1997, Br J Pharmacol 121, 353; 1 nM) binding assay was carried out in 96-well plates in the presence of 2.5 μg of membrane protein, 0.5 mg of Ysi-poly-1-lysine SPA beads and 0.1 U adenosine deaminase in a final volume of 200 μl of buffer A. Non-specific binding was defined using xanthine amine congener (XAC; 2 μM). Compounds were tested at 10 concentrations from 10 μM-0.3 nM. All assays were conducted in duplicate and repeated at least two times. Assay plates were incubated for 1 hour at room temperature before centrifugation and then bound ligand determined using a Packard Topcount scintillation counter. IC50 values were calculated using a non-linear curve fitting program and Ki values calculated using the Cheng-Prussoff equation.

T1 sequence (P29274 whole entry): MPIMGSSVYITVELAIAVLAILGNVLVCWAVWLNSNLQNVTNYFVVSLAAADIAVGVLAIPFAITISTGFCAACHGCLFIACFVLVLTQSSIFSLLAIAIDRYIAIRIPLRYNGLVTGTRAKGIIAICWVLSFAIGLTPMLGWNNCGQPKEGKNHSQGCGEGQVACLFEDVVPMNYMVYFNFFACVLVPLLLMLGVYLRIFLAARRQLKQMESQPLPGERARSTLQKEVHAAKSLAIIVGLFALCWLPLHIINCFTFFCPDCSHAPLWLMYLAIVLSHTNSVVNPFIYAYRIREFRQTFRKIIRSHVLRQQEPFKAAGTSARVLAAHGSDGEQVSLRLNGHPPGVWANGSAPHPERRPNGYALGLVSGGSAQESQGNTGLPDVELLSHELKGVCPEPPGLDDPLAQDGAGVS

Structure (SMILES) | melting point | Ki [1]
COc1ccc(C2CCOCC2)c2sc(NC(=O)O[C@H]3CCOC3)nc12 [Example 13, [4-Methoxy-7-(tetrahydro-pyran-4-yl)-benzothiazol-2-yl]-carbamic acid (S)-(tetrahydro-furan-3-yl) ester] | 195 to 200 °C | 3.98 nM
COc1ccc(N2CCOCC2)c2sc(NC(=O)O[C@H]3CC[C@@H](O)CC3)nc12 [Example 7, (cis)-(4-Methoxy-7-morpholin-4-yl-benzothiazol-2-yl)-carbamic acid 4-hydroxy-cydohexyl ester] | 204 to 206 °C | 10 nM
COc1ccc(N2CCOCC2)c2sc(NC(=O)O[C@H]3CC[C@H](O)CC3)nc12 [Example 6, (tran)s-(4-Methoxy-7-morpholin-4-yl-benzothiazol-2-yl)-carbamic acid 4-hydroxy-cyclohexyl ester] | 176 to 179 °C | 6.31 nM
COc1ccc(C2CCOCC2)c2sc(NC(=O)O[C@H]3CC[C@H](O)CC3)nc12 [Example 1, (trans)-[4-Methoxy-7-(tetrahydro-pyran-4-yl)-benzothiazol-2-yl]-carbamic acid 4-hydroxy-cyclohexyl ester] | 282 to 284 °C | 2 nM
COc1ccc(N2CCOCC2)c2sc(NC(=O)OC3CC4CC3CC4O)nc12 (racemic) [Example 9, (rac)-(exo,exo)-(4-Methoxy-7-morpholin-4-yl-benzothiazol-2-yl)-carbamic acid 5-hydroxy-bicyclo[2.2.1]hept-2-yl ester] | 193 to 194 °C | 3.98 nM
COc1ccc(N2CCOCC2)c2sc(NC(=O)OC3CCOCC3)nc12 [Example 8, (4-Methoxy-7-morpholin-4-yl-benzothiazol-2-yl)-carbamic acid tetrahydro-pyran-4-yl ester] | 187 to 188 °C | 7.94 nM
COc1ccc(C2CCOCC2)c2sc(NC(=O)OCC3CCCO3)nc12 (centres unmarked) [Example 12, [4-Methoxy-7-(tetrahydro-pyran-4-yl)-benzothiazol-2-yl]-carbamic acid tetrahydro-furan-2-ylmethyl ester] | 175 to 180 °C | 12.6 nM
CCOC(=O)Nc1nc2c(OC)ccc(C3CCOCC3)c2s1 [Example 2, [4-Methoxy-7-(tetrahydro-pyran-4-yl)-benzothiazol-2-yl]-carbamic acid ethyl ester] | 170 to 174 °C | 5.01 nM

The remaining lines, values ahead:

melting point | Ki [1] | Structure (SMILES)
149 to 152 °C | 12.6 nM | COCCOC(=O)Nc1nc2c(OC)ccc(N3CCOCC3)c2s1 [Example 3, (4-Methoxy-7-morpholin-4-yl-benzothiazol-2-yl)-carbamic acid 2-methoxy-ethyl ester]
198 to 200 °C | 25.1 nM | COc1ccc(N2CCOCC2)c2sc(NC(=O)O[C@@H]3CCOC3)nc12 [Example 10, (R)-(4-Methoxy-7-morpholin-4-yl-benzothiazol-2-yl)-carbamic acid tetrahydro-furan-3-yl ester]
164 to 168 °C | 25.1 nM | COc1ccc(N2CCOCC2)c2sc(NC(=O)OCC(C)C)nc12 [Example 4, (4-Methoxy-7-morpholin-4-yl-benzothiazol-2-yl)-carbamic acid isobutyl ester]
177 to 179 °C | 7.94 nM | COc1ccc(N2CCOCC2)c2sc(NC(=O)OC3CCCCC3)nc12 [Example 5, (4-Methoxy-7-morpholin-4-yl-benzothiazol-2-yl)-carbamic acid cyclohexyl ester]
188 to 189 °C | 15.8 nM | COc1ccc(N2CCOCC2)c2sc(NC(=O)OC3CCC(O)C3)nc12 (mixture of isomers) [Example 11, (cis/trans)-(4-Methoxy-7-morpholin-4-yl-benzothiazol-2-yl)-carbamic acid 3-hydroxy-cyclopentyl ester]
